Experimental data from paper PMC4927298, “Olfactory channels associated with the Drosophila maxillary palp mediate short- and long-range attraction” (eLife, 2016).

Tests used:
Or85a = target: T1, Or85a (Drosophila melanogaster, UniProt Q9VHS4); assay: SSR and GC-SSR, dose-response; settings: native antennal ab2B neuron, agonist; odor dilution
T1 construct: native receptor in antennal ab2B neuron of wild-type flies; with Odorant receptor coreceptor
T1 sequence (Q9VHS4 1-397): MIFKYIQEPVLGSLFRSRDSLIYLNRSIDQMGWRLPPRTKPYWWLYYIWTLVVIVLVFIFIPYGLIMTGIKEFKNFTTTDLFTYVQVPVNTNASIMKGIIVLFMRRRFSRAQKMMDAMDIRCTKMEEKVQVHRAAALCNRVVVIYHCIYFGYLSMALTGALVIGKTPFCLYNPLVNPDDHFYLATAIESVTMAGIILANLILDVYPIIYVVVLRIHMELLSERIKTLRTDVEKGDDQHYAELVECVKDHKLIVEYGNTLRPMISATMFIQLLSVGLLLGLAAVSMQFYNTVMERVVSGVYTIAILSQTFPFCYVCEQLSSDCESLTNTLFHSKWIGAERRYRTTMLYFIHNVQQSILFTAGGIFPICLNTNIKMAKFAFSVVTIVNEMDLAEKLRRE
T1 sequence (Q9VNB5 1-486 partner): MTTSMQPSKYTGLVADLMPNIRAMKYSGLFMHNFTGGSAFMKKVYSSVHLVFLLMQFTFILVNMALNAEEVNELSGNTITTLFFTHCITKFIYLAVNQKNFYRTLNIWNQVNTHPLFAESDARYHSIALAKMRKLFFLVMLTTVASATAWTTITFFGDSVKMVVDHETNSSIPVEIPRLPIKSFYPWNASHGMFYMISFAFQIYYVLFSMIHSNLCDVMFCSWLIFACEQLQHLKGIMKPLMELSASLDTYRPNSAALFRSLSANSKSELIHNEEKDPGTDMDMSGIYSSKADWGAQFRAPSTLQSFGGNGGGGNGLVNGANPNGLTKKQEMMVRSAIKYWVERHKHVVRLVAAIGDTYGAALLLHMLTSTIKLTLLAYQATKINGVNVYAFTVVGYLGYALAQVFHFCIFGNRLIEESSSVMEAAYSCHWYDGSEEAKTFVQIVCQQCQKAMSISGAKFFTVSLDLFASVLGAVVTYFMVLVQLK

Or59c (pb3A) = target: T2, Or59c (pb3A) (Drosophila melanogaster, UniProt Q9W1P7); assay: single sensillum recording (SSR), dose-response; settings: native pb3A neuron, agonist; odor dilution
T2 construct: native receptor in pb3A maxillary palp neuron of wild-type flies; with Odorant receptor coreceptor
T2 sequence (Q9W1P7 1-411): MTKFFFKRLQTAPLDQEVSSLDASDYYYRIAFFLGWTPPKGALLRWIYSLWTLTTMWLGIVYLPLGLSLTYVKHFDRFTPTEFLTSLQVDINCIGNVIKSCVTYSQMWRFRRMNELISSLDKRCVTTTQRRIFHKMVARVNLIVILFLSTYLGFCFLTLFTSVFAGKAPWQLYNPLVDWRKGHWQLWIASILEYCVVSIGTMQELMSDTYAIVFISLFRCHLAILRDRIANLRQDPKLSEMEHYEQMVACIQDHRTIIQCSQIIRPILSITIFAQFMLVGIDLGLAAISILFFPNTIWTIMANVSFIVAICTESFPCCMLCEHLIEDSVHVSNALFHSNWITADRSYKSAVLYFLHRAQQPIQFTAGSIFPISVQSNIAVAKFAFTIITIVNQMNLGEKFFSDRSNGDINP
T2 sequence (Q9VNB5 1-486 partner): T1 sequence (Q9VNB5 1-486 partner)
From the text: single sensillum recording (SSR), dose-response on Or59c (pb3A)

Or46a (pb2B) = target: T3, Or46a (pb2B) (Drosophila melanogaster, UniProt P81919); assay: single sensillum recording (SSR), dose-response; settings: native pb2B neuron, agonist; odor dilution
T3 construct: native receptor in pb2B maxillary palp neuron of wild-type flies; with Odorant receptor coreceptor
T3 sequence (P81919 1-381): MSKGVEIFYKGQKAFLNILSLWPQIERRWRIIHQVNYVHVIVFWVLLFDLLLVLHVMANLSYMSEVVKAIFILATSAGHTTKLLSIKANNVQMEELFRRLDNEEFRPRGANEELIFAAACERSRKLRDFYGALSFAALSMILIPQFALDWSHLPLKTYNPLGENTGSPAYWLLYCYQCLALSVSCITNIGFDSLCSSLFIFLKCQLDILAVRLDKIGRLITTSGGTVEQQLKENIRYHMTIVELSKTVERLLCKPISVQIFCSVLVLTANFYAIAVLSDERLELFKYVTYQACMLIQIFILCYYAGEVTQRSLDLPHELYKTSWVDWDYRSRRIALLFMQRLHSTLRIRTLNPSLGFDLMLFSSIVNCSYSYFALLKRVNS
T3 sequence (Q9VNB5 1-486 partner): T1 sequence (Q9VNB5 1-486 partner)
From the text: single sensillum recording (SSR), dose-response on Or46a (pb2B)

Or67a = target: T4, Or67a (Drosophila melanogaster, UniProt Q9VT08); assay: SSR and GC-SSR, dose-response; settings: native antennal neuron, agonist; odor dilution
T4 construct: native receptor in antennal neuron (ab10) of wild-type flies; with Odorant receptor coreceptor
T4 sequence (Q9VT08 1-407): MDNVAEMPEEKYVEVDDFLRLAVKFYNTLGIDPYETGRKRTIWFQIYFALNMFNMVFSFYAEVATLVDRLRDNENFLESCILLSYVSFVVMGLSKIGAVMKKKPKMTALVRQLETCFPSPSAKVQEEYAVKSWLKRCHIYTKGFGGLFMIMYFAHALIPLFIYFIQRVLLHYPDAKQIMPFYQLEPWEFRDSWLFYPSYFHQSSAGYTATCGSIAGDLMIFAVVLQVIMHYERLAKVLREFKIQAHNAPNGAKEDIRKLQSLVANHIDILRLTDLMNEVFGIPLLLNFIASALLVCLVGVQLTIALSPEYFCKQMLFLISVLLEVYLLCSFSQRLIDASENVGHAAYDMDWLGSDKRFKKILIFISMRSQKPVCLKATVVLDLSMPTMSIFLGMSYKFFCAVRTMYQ
T4 sequence (Q9VNB5 1-486 partner): T1 sequence (Q9VNB5 1-486 partner)

Or85d (pb3B) = target: T5, Or85d (pb3B) (Drosophila melanogaster, UniProt Q9VHQ2); assay: single sensillum recording (SSR), dose-response; settings: native pb3B neuron, agonist; odor dilution
T5 construct: native receptor in pb3B maxillary palp neuron of wild-type flies; with Odorant receptor coreceptor
T5 sequence (Q9VHQ2 1-412): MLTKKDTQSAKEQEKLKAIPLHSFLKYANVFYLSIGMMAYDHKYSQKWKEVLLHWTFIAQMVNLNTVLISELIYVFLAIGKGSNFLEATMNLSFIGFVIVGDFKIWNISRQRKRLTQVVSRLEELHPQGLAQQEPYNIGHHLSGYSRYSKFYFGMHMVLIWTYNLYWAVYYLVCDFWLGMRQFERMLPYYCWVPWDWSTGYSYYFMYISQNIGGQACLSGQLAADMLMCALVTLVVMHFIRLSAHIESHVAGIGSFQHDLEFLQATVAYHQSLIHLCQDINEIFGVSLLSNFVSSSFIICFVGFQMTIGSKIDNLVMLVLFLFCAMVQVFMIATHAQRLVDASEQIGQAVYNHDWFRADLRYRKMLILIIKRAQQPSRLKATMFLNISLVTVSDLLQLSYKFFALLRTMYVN
T5 sequence (Q9VNB5 1-486 partner): T1 sequence (Q9VNB5 1-486 partner)
From the text: single sensillum recording (SSR), dose-response on Or85d (pb3B)

Or42a (pb1A) = target: T6, Or42a (pb1A) (Drosophila melanogaster, UniProt Q9V9I2); assay: single sensillum recording (SSR), dose-response; settings: native pb1A neuron, agonist; odor dilution
T6 construct: native receptor in pb1A maxillary palp neuron of wild-type flies; neuron-receptor match not tested by expression; with Odorant receptor coreceptor
T6 sequence (Q9V9I2 1-406): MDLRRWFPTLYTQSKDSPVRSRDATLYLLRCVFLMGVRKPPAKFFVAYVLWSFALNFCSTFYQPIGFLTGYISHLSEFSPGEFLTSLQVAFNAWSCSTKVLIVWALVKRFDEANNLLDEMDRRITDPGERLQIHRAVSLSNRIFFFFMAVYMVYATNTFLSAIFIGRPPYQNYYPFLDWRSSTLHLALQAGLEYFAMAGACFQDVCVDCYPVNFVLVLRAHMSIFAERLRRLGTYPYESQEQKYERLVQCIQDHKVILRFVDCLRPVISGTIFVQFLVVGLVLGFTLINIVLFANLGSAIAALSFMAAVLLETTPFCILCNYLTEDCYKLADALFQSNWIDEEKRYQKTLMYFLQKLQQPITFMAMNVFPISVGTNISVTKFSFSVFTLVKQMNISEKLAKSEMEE
T6 sequence (Q9VNB5 1-486 partner): T1 sequence (Q9VNB5 1-486 partner)
From the text: single sensillum recording (SSR), dose-response on Or42a (pb1A)

Or71a (pb1B) = target: T7, Or71a (pb1B) (Drosophila melanogaster, UniProt Q9VUK5); assay: single sensillum recording (SSR), dose-response; settings: native pb1B neuron, agonist; odor dilution
T7 construct: native receptor in pb1B maxillary palp neuron of wild-type flies; with Odorant receptor coreceptor
T7 sequence (Q9VUK5 1-378): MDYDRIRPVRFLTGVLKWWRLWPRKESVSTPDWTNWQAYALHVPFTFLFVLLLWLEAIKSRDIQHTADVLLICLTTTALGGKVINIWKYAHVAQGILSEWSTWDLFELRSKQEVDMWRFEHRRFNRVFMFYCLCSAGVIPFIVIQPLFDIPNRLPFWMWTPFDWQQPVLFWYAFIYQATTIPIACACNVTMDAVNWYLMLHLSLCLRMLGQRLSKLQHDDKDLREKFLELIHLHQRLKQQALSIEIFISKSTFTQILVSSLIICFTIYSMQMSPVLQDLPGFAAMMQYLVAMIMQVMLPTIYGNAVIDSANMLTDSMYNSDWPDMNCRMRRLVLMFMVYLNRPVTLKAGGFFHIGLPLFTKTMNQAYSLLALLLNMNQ
T7 sequence (Q9VNB5 1-486 partner): T1 sequence (Q9VNB5 1-486 partner)
From the text: single sensillum recording (SSR), dose-response on Or71a (pb1B)

`CCCCOC(=O)CC(C)O` (stereo not drawn) [Butyl 3-hydroxy butyrate] was tested, and the Detection threshold (Or85a) was 10^-5 dilution and the Detection threshold (Or59c (pb3A)) was 10^-4 dilution.
With `Oc1ccccc1` [Phenol] the Detection threshold (Or46a (pb2B)) was 10^-7 dilution.
In the case of `CCC(=O)OCCc1ccccc1` [Phenethyl propionate], the Detection threshold (Or67a) was 10^-5 dilution and the Detection threshold (Or85d (pb3B)) was 10^-7 dilution.
For `C=CCC(=O)CC` [5-hexen-3-one], the Detection threshold (Or42a (pb1A)) was 10^-7 dilution.
`C=CCc1ccc(OC)c(OC)c1` [Methyleugenol] was tested, and the Detection threshold (Or71a (pb1B)) was 10^-7 dilution.
`CC(=O)OCCc1ccccc1` [2-Phenethyl acetate] was tested, and the Detection threshold (Or85d (pb3B)) was 10^-7 dilution.
`CCc1ccc(O)c(OC)c1` [4-ethylguaiacol] was tested, and the Detection threshold (Or71a (pb1B)) was 10^-7 dilution.
